# From patent publication US9227962B2, “Heterocyclic substituted-3-heteroarylidenyl-2-indolinone derivative” (Dainippon Sumitomo Pharma Co., Ltd., priority 2013, dated 2016)
# Read-outs that look alike come from different tables or passages of the source.
# Legend:
# [1] = test system: CD44high FaDu cancer stem cells; assay: sphere assay (sphere formation of CSC); type: cell-based; conditions: Homo sapiens, spheres scored after 10-14 days
# Description: CSC isolation with surface markers: Sorting tumor cells based primarily upon the differential expression of the surface marker(s), such as CD44 or CD133, have accounted for the majority of the highly tumorigenic CSCs described to date. CD44^high cells were isolated by FACS according to the methods described in Ponti et al, with slight modification [Ponti, D., et al, Isolation and in vitro propagation of tumorigenic breast cancer cells with stem/progenitor cell properties. Cancer Res, 2005. 65(13); p. 5506-11.], Briefly, after trypsinization and recovery of cells for 30 minutes at 37° C. in growth media, cells were pelleted at 400×g and were resuspended in PBS with 2% FBS and ImM EDTA at 1×10^6 cells/mL. Cells were then incubated on ice with a 1:100 dilution of CD44-FITC (BD Biosicences, San Diego, Calif.) for 15 minutes. Alternatively, CD24-PE (BD Bioscences, San Diego, Calif.) (1:100) was utilized for negative selection. After washing three times, cells were resuspended at […] and passed through a […] before sorting.
# Sphere assay: A reliable method of measuring the self-renewal capacity of cell population if the ability to be cultured as spheres in the absence of serum or attachment. CD44^high FaDu cancer stem cells were cultured in ultra low attachment plates in cancer stem cell media (DMEM/F12, B27 Neurobasal supplement, 20 ng/ml EGF, 10 ng/rnl FGF, 4 µg/ml insulin, and 0.4% BSA) to allow spheres formation. Typically, sphere formation was evaluated by microscopy after 10-14 days in culture and spheres with >50 cells were scored.
# [2] = solubility in buffer solution, HPLC; type: physicochemical; conditions: kinetic from dmso stock
# Experimental: A solution of compounds (10 mM in dimethylsulfoxide, 2 μL) was diluted with 50% acetonitrile (198 μL), and this solution was used as a standard solution.
# On the other hand, a solution of compounds (10 mM in dimethylsulfoxide, 15 μL) was transferred to a 96 well plate, then solvent was removed in vacuo. Dimethyl sulfoxide (3 μL) was added to dissolve a residual solid, and then buffer solution (pH7.4 or 1.2, 300 μL) was added. The mixture was vigorously stirred for 90 min, then leave it for 16-20 h. An insoluble material was removed, then the solution was analyzed by HPLC. The concentration of compound, which was corresponding to a solubility of the compound, was determined by the comparison with area value between sample and the standard solution.
# FaDu = assay: colony formation assay (cell viability determination); type: cell-based; conditions: Homo sapiens; FaDu cells, colonies counted after 7-10 days; read-out: colonyformation IC50
# Experimental: Cell Culture: FaDu (ATCC, Manassas, Va.) was maintained in Dulbecco's Modified Eagle Medium (DMEM) (Invitrogen, Carlsbad, Calif.) supplemented with 10% fetal bovine serum (FBS) (Gemini Bio-Products, West Sacramento, Calif.) and 5% penicillin/streptomycin/amphotercin B (Invitrogen).
# Cell Viability Determination: For colony formation assay, cells were plated in 6 well plates at 2000 cells per well. Twenty-four hours after plating, cells were treated with compound. Colonies were allowed to develop for 7-10 days, at which they were stained with modified Giemsa stain (Sigma). Stained colonies were then counted to determine IC50.
# [3] = aqueous buffer, buffer solution pH 7.4, read-out: solubility pH 7.4
# [4] = simulated gastric fluid, buffer solution pH 1.2, read-out: solubility pH 1.2
IC50 [1],"solubility [2, 3]","solubility [2, 4]",SMILES,IC50 (FaDu)
–,13 µg/mL,109 µg/mL,CCN(CC)CCNC(=O)c1c(C)[nH]c(/C=C2\C(=O)Nc3ccc(-n4cc(-c5ccccc5)nn4)cc32)c1C [Example 49],–
–,< 0.5 µg/mL,> 200 µg/mL,CCN(CC)CCNC(=O)c1c(C)[nH]c(/C=C2\C(=O)Nc3ccc(-c4ccc(-c5cccnc5)s4)cc32)c1C [Example 26],–
–,0.3 µg/mL,186 µg/mL,CCN(CC)CCNC(=O)c1c(C)[nH]c(/C=C2\C(=O)Nc3ccc(-c4cnc(-c5ccccc5)[nH]4)cc32)c1C [Example 41],–
–,7 µg/mL,154 µg/mL,CCN(CC)CCNC(=O)c1c(C)[nH]c(/C=C2\C(=O)Nc3ccc(-c4nc(-c5ccccc5)n[nH]4)cc32)c1C [Example 50],–
–,4 µg/mL,163 µg/mL,CCN(CC)CCNC(=O)c1c(C)[nH]c(/C=C2\C(=O)Nc3ccc(-c4nnc(-c5ccccc5)s4)cc32)c1C [Example 52],–
–,< 0.5 µg/mL,> 200 µg/mL,"CCN(CC)CCNC(=O)c1c(C)[nH]c(/C=C2\C(=O)Nc3ccc(-c4nc(-c5ccccc5)cs4)cc32)c1C [Example 51, (Z)—N-(2-(diethylamino)ethyl)-2,4-dimethyl-5-((2-oxo-5-(4-phenylthiazol-2-yl)indolin-3-ylidene)methyl)-1H-pyrrole-3-carboxamide]",–
–,< 0.3 µg/mL,147 µg/mL,CCN(CC)CCNC(=O)c1c(C)[nH]c(/C=C2\C(=O)Nc3ccc(-c4cn(-c5ccccc5)nn4)cc32)c1C [Example 48],–
–,0.5 µg/mL,43 µg/mL,CCN(CC)CCNC(=O)c1c(C)[nH]c(/C=C2\C(=O)Nc3ccc(-c4cc(-c5ccccc5)nn4C)cc32)c1C [Example 55],–
–,61 µg/mL,> 200 µg/mL,CCN(CC)CCNC(=O)c1c(C)[nH]c(/C=C2\C(=O)Nc3ccc(-c4nnc(-c5ccccc5)o4)cc32)c1C [Example 53],–

# Second part, the compound before the results:
SMILES,IC50 [1],"solubility [2, 3]","solubility [2, 4]",IC50 (FaDu)
CCN(CC)CCNC(=O)c1c(C)[nH]c(/C=C2\C(=O)Nc3ccc(C4CCN(c5ncccn5)CC4)cc32)c1C [Example 43],1900 nM,0.4 µg/mL,163 µg/mL,–
Cc1[nH]c(/C=C2\C(=O)Nc3ccc(-c4cnn(-c5ccccn5)c4)cc32)c(C)c1C(=O)N1CCN(C)CC1 [Example 31],200 nM,–,–,–
Cc1nc(-c2ccccc2)oc1-c1ccc2c(c1)NC(=O)/C2=C\c1[nH]c(C)c(C(=O)N2CCN(C)CC2)c1C [Example 38],2000 nM,–,–,6200 nM
CCN(CC)CCNC(=O)c1c(C)[nH]c(/C=C2\C(=O)Nc3ccc(C4CCN(c5ccccc5)CC4)cc32)c1C [Example 42],–,11 µg/mL,> 200 µg/mL,–
CCN(CC)CCNC(=O)c1c(C)[nH]c(/C=C2\C(=O)Nc3ccc(C4CCN(C5CCOCC5)CC4)cc32)c1C [Example 12],> 50000 nM,> 200 µg/mL,> 200 µg/mL,–
Cc1[nH]c(/C=C2\C(=O)Nc3ccc(-c4cnn(-c5ccccn5)c4)cc32)c(C)c1C(=O)N1CCOCC1 [Example 30],–,–,–,> 100000 nM
CCN(CC)CCNC(=O)c1c(C)[nH]c(/C=C2\C(=O)Nc3ccc(C4CCN(C5CCN(C(C)=O)CC5)CC4)cc32)c1C [Example 45],> 50000 nM,–,–,–
